Experimental data: ChEMBL document CHEMBL1201862, “PubChem BioAssay data set” (2004)
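Where inhibition never reached the appropriate level, the endpoint shown equals the highest concentration tested. Otherwise, values were interpolated linearly from a five-concentration, 48-hour dose response in 96-well plates. At the GI50, growth is halved.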 Calls of active or inactive are those of the source. Rule as the data show it: active = GI50 up to about 1.1 µM and inactive = higher.

What was measured:
Experiment in all cases: DTP human tumour cell line panel, 48 h
SR = test system: SR
MDA-MB-231 = test system: MDA-MB-231
NCI-H226 = test system: NCI-H226
T47D = test system: T47D
BT-549 = test system: BT-549
A549 = test system: A549
UACC-257 = test system: UACC-257
Hs-578T = test system: Hs-578T
LOX IMVI = test system: LOX IMVI
OVCAR-3 = test system: OVCAR-3
Malme-3M = test system: Malme-3M
MDA-MB-435 = test system: MDA-MB-435
HL-60 = test system: HL-60
786-0 = test system: 786-0
SK-MEL-2 = test system: SK-MEL-2
SK-MEL-5 = test system: SK-MEL-5
NCI-H23 = test system: NCI-H23
SF-539 = test system: SF-539
HCC 2998 = test system: HCC 2998

Row | SMILES | GI50 (SR) | GI50 (MDA-MB-231) | GI50 (NCI-H226) | GI50 (T47D) | GI50 (BT-549) | GI50 (A549) | GI50 (UACC-257) | GI50 (Hs-578T) | GI50 (LOX IMVI) | GI50 (OVCAR-3) | GI50 (Malme-3M) | GI50 (MDA-MB-435) | GI50 (HL-60) | GI50 (786-0) | GI50 (SK-MEL-2) | GI50 (SK-MEL-5) | GI50 (NCI-H23) | GI50 (SF-539) | GI50 (HCC 2998)
1 | COc1cc2c(cc1OC)C13CCN4C=C5CCOC6CC(=O)N2C1C6C5CC43 (centres undefined) | > 100 µM (inactive) | > 100 µM (inactive) | > 100 µM (inactive) | > 100 µM (inactive) | > 100 µM (inactive) | > 100 µM (inactive) | > 100 µM (inactive) | > 100 µM (inactive) | > 100 µM (inactive) | > 100 µM (inactive) | > 100 µM (inactive) | > 100 µM (inactive) | > 100 µM (inactive) | > 100 µM (inactive) | > 100 µM (inactive) | > 100 µM (inactive) | > 100 µM (inactive) | > 100 µM (inactive) | 
2 | Cc1oncc1/N=C1\C=C(O)C(=O)c2ccccc21 | 4.88 µM (inactive) | 8.47 µM (inactive) | 19 µM (inactive) | 3.3 µM (inactive) | 12.4 µM (inactive) | 3.9 µM (inactive) | 2.77 µM (inactive) | 9.12 µM (inactive) | 2.73 µM (inactive) | 1.9 µM (inactive) | 3.45 µM (inactive) | 1.92 µM (inactive) | 2.26 µM (inactive) | 18.2 µM (inactive) |  | 1.95 µM (inactive) | 3.79 µM (inactive) | 4.65 µM (inactive) | 16.8 µM (inactive)
3 | COc1cc(/C=C/C2=NN(c3cccc(S(=O)(=O)O)c3)C3(C2)C(Cl)C(=O)N3c2nc3ccccc3s2)ccc1O (centres undefined) | 15.6 µM (inactive) | 20.8 µM (inactive) | 20.7 µM (inactive) | 6.47 µM (inactive) | 14.7 µM (inactive) | 31 µM (inactive) | 19.9 µM (inactive) | 50 µM (inactive) | 11.4 µM (inactive) |  | 19.7 µM (inactive) | 17.1 µM (inactive) | 21.4 µM (inactive) | 17.4 µM (inactive) | 39.7 µM (inactive) | 23.6 µM (inactive) | 13 µM (inactive) | 21.4 µM (inactive) | 20.7 µM (inactive)
4 | CCOC(=O)CC1(N)CC2c3ccccc3OC(=O)C2C(=O)N1 (centres undefined) | > 100 µM (inactive) | > 100 µM (inactive) | > 100 µM (inactive) | > 100 µM (inactive) | > 100 µM (inactive) | > 100 µM (inactive) | > 100 µM (inactive) | > 100 µM (inactive) | > 100 µM (inactive) | > 100 µM (inactive) | > 100 µM (inactive) | > 100 µM (inactive) | > 100 µM (inactive) | > 100 µM (inactive) | > 100 µM (inactive) |  | > 100 µM (inactive) |  | > 100 µM (inactive)
5 | N#CC12CC3=C(N=C1NC1=C(CCc4ccccc41)C2)c1ccccc1CC3 (centres undefined) | 0.255 µM (active) | 4.16 µM (inactive) | 3.73 µM (inactive) | 6.67 µM (inactive) | 9.29 µM (inactive) | 3.32 µM (inactive) | 17.6 µM (inactive) | 4.83 µM (inactive) | 1.42 µM (inactive) | 0.538 µM (active) | 1.71 µM (inactive) | 0.278 µM (active) | 0.323 µM (active) | 3.42 µM (inactive) | 4.39 µM (inactive) | 3.74 µM (inactive) | 3.18 µM (inactive) | 2.53 µM (inactive) | 1.74 µM (inactive)
6 | CC(=O)OCC1C(C(C)OC(C)=O)CCC2C1CCC1(C)C(OC(C)=O)CCC21 (centres undefined) | 23.7 µM (inactive) | 15.6 µM (inactive) | 16.6 µM (inactive) | 24.8 µM (inactive) | 11.6 µM (inactive) | 18.9 µM (inactive) | 16.7 µM (inactive) | > 10 µM (inactive) | 14.7 µM (inactive) | 20.5 µM (inactive) | 16.9 µM (inactive) | 18.7 µM (inactive) | 17.1 µM (inactive) | 22.6 µM (inactive) |  | 16.6 µM (inactive) | 24.1 µM (inactive) | 17.7 µM (inactive) | 18.8 µM (inactive)
7 | C/C(=C\CO)CC/C=C(\C)CNc1ccccc1 | 34.3 µM (inactive) | 34.8 µM (inactive) | 36.9 µM (inactive) | 14.7 µM (inactive) | 18.6 µM (inactive) | 50.8 µM (inactive) | 27.3 µM (inactive) | 29.8 µM (inactive) | 57.7 µM (inactive) | 18.2 µM (inactive) | 13.5 µM (inactive) | 36.1 µM (inactive) | 30.1 µM (inactive) | > 100 µM (inactive) |  | 16 µM (inactive) | < 0.01 µM (active) | 82.6 µM (inactive) | 
8 | c1cncc(CC2(c3cc4ccccc4[nH]3)OCCO2)c1 | 85.5 µM (inactive) | > 100 µM (inactive) | > 100 µM (inactive) | > 100 µM (inactive) | 66.1 µM (inactive) | 81.8 µM (inactive) | 66.5 µM (inactive) | 96.8 µM (inactive) | > 100 µM (inactive) |  | > 100 µM (inactive) | > 100 µM (inactive) | 37.2 µM (inactive) | > 100 µM (inactive) | > 100 µM (inactive) | 61.8 µM (inactive) | > 100 µM (inactive) | 58.3 µM (inactive) | > 100 µM (inactive)
9 | COc1cc(/C=C2\C(=O)N(c3cccc(Cl)c3)C(c3ccccc3)S2(=O)=O)cc(OC)c1OC (centres undefined) |  | > 100 µM (inactive) | 89.7 µM (inactive) | 41.3 µM (inactive) | > 100 µM (inactive) | 70.8 µM (inactive) | 76 µM (inactive) | > 100 µM (inactive) | 22.2 µM (inactive) | 48.8 µM (inactive) | 43.4 µM (inactive) | 30.5 µM (inactive) | 36.4 µM (inactive) | 42.2 µM (inactive) | > 100 µM (inactive) | 39.2 µM (inactive) | 66.2 µM (inactive) | 43.3 µM (inactive) | > 100 µM (inactive)
10 | C/C(=N\O)c1cccc(Nc2nc3ccccc3c3occc23)c1 | 5.81 µM (inactive) | 11.9 µM (inactive) | 1.72 µM (inactive) | 7.73 µM (inactive) | 13.1 µM (inactive) | 7.33 µM (inactive) | < 0.01 µM (active) | 12.1 µM (inactive) | 13.6 µM (inactive) | 13.7 µM (inactive) | 14.4 µM (inactive) | 10.1 µM (inactive) | 20.9 µM (inactive) | 12.7 µM (inactive) |  | 13.6 µM (inactive) |  | 15.5 µM (inactive) | 14.6 µM (inactive)
11 | Cc1ccc(NC(=O)C23CC4CC(CC(C4)C2)C3)c(C(=O)NNC(=O)c2ccc(Cl)cc2)c1 | 13.7 µM (inactive) | 15.5 µM (inactive) | 17 µM (inactive) | 18.3 µM (inactive) | 35.9 µM (inactive) | 20 µM (inactive) | 2.14 µM (inactive) | 4.3 µM (inactive) | 17 µM (inactive) | 20.7 µM (inactive) | 18.3 µM (inactive) | 17.3 µM (inactive) | 28.3 µM (inactive) | 20.2 µM (inactive) |  | 18.4 µM (inactive) | 12.9 µM (inactive) | 18.1 µM (inactive) | 12.9 µM (inactive)
12 | O=S(=O)(N1CCCCN(S(=O)(=O)C(F)(F)F)CCCN(S(=O)(=O)C(F)(F)F)CCCN(S(=O)(=O)C(F)(F)F)CCCCN(S(=O)(=O)C(F)(F)F)CCCN(S(=O)(=O)C(F)(F)F)CCC1)C(F)(F)F |  | > 100 µM (inactive) | 81.8 µM (inactive) | 77.4 µM (inactive) | 23.7 µM (inactive) | > 100 µM (inactive) | 49.3 µM (inactive) | 30.3 µM (inactive) | 80.5 µM (inactive) | 38.4 µM (inactive) | 23.2 µM (inactive) | 53.7 µM (inactive) | > 100 µM (inactive) | 18.2 µM (inactive) | 76.4 µM (inactive) | 35 µM (inactive) | 56.5 µM (inactive) | 28.9 µM (inactive) | > 100 µM (inactive)
13 | CCCCCC(/C=C/C1CCC(=O)C1CC#C[Si](C)(C)C)OCc1ccccc1 (centres undefined) | > 35 µM (inactive) | 23.1 µM (inactive) | 30.5 µM (inactive) | 23.2 µM (inactive) | 17.3 µM (inactive) | 21.5 µM (inactive) | 17.2 µM (inactive) | 17.9 µM (inactive) | 15.7 µM (inactive) | 17.5 µM (inactive) | 15.9 µM (inactive) | 19.9 µM (inactive) |  | 14.6 µM (inactive) | 15.5 µM (inactive) | 13.2 µM (inactive) | 22.2 µM (inactive) | 12.1 µM (inactive) | 17.9 µM (inactive)
14 | CCSc1nn(-c2c3ccccc3nc3ccccc23)c(=S)s1 | > 100 µM (inactive) | > 100 µM (inactive) | > 100 µM (inactive) | > 100 µM (inactive) | > 100 µM (inactive) | > 100 µM (inactive) | > 100 µM (inactive) | > 100 µM (inactive) | > 100 µM (inactive) | > 100 µM (inactive) |  | > 100 µM (inactive) | > 100 µM (inactive) | > 100 µM (inactive) | > 100 µM (inactive) | > 100 µM (inactive) | > 100 µM (inactive) | > 100 µM (inactive) | > 100 µM (inactive)
15 | O=C(O)[C@@H]1CSCN1C(=O)[C@@H]1CCC(=S)N1 | > 100 µM (inactive) | > 100 µM (inactive) | > 100 µM (inactive) | > 100 µM (inactive) | > 100 µM (inactive) | > 100 µM (inactive) | > 100 µM (inactive) | > 100 µM (inactive) | > 100 µM (inactive) | > 100 µM (inactive) | > 100 µM (inactive) | > 100 µM (inactive) | > 100 µM (inactive) | > 100 µM (inactive) | > 100 µM (inactive) | > 100 µM (inactive) | > 100 µM (inactive) | > 100 µM (inactive) | > 100 µM (inactive)
